Laboratory results: patent publication US20250163104A1, “MACROCYCLIC IMMUNOMODULATORS” (priority 2021, published 2025)
Where a SMILES comes first, the peptide text is derived from it. Bridges are numbered along the chain shown (N, C = ends). [ ]: non-standard residue; d: D form. The star is where a group is joined. Phe(3-CF3) = N[C@@H](Cc1cccc(C(F)(F)F)c1)C(=O)O; Phe(2,4-Cl2) = N[C@@H](Cc1ccc(Cl)cc1Cl)C(=O)O; Phe(3,5-F2) = N[C@@H](Cc1cc(F)cc(F)c1)C(=O)O; Bip = N[C@@H](Cc1ccc(-c2ccccc2)cc1)C(=O)O; Phe(3-OMe) = COc1cccc(C[C@H](N)C(=O)O)c1; Phe(4-Cl) = N[C@@H](Cc1ccc(Cl)cc1)C(=O)O; Phe(4-NH2) = Nc1ccc(C[C@H](N)C(=O)O)cc1; Phe(3-Me) = Cc1cccc(C[C@H](N)C(=O)O)c1; Phe(4-Me) = Cc1ccc(C[C@H](N)C(=O)O)cc1; mTyr = N[C@@H](Cc1cccc(O)c1)C(=O)O; Cha = N[C@@H](CC1CCCCC1)C(=O)O; Carboxymethyl = O=C(O)C*; Orn = NCCC[C@H](N)C(=O)O; Dab = NCC[C@H](N)C(=O)O; Dap = NC[C@H](N)C(=O)O

Each compound was assayed against T1, human PD-1 / PD-L1-Ig binding on Jurkat cell line over-expressing human PD-1 (Jurkat-PD-1) (Homo sapiens, UniProt Q15116) (assay: Jurkat-PD-1 Cell Binding High-Content Screening Assay (CBA)). Conditions: Jurkat-PD-1 cells, PE-labeled PD-L1-Ig 20 nM final; read-out: Jurkat HPD1_PDL1 IC50.
T1 construct: expressed in transfected cells; host or cells: Jurkat
T1 sequence (Q15116 25-288): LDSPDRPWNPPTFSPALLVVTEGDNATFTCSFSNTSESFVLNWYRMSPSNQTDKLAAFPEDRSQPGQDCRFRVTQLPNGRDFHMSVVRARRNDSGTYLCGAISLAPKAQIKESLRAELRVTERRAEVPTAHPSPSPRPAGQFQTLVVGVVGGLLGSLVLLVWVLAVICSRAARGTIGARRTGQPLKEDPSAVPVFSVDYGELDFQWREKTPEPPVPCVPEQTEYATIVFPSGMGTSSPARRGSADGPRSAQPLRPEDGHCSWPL
Assay type: cell-based
How it was run: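 Cell-bound PE-labeled PD-L1-Ig (20 nM final, 1 h) measured by high-content imaging after fixation and Hoechst 33342 counterstain. Compound was applied first for 2 h at 37° C. to Jurkat cells over-expressing human PD-1 in DMEM with 10% FCS.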
CC(C)C[C@H]1NC(=O)[C@H](CCCN)NC(=O)[C@H](CCC(=O)O)NC(=O)[C@H](Cc2ccc(-c3ccccc3)cc2)NC(=O)[C@H](C(C)C)NC(=O)[C@H](Cc2cccc(C(F)(F)F)c2)NC(=O)[C@H](CC(=O)O)NC(=O)[C@H](Cc2ccc(O)cc2)NC(=O)[C@H](Cc2ccncc2)NC(=O)CSC[C@@H](C(=O)N[C@@H](C)C(N)=O)NC(=O)[C@H]([C@@H](C)O)NC(=O)[C@H](C(C)C)NC(=O)[C@H](CC2CCCCC2)NC(=O)[C@H](CCN)NC1=O [Compound 1464] was tested, and the IC50 was 0.0258 µM.
With CC(C)C[C@H]1NC(=O)[C@H](CCCN)NC(=O)[C@H](CCC(=O)O)NC(=O)[C@H](Cc2ccc(-c3ccccc3)cc2)NC(=O)[C@H](C(C)C)NC(=O)[C@H](Cc2cccc(C(F)(F)F)c2)NC(=O)[C@H](CC(=O)O)NC(=O)[C@H](Cc2ccc(OCC(=O)O)cc2)NC(=O)[C@H](Cc2ccc(OCC(=O)O)cc2)NC(=O)CSC[C@@H](C(=O)N[C@@H](C)C(N)=O)NC(=O)[C@H]([C@@H](C)O)NC(=O)[C@H](C(C)C)NC(=O)[C@H](CC2CCCCC2)NC(=O)[C@H](CCN)NC1=O [Compound 1465] the IC50 was 0.0274 µM.
COc1cccc(C[C@@H]2NC(=O)[C@H](CC(=O)O)NC(=O)[C@H](Cc3ccc(O)cc3)NC(=O)[C@H](CC(N)=O)NC(=O)CSC[C@@H](C(=O)N[C@@H](C)C(N)=O)NC(=O)[C@H]([C@@H](C)O)NC(=O)[C@H](C(C)C)NC(=O)[C@H](CC3CCCCC3)NC(=O)[C@H](CCN)NC(=O)[C@@H](CC(C)C)NC(=O)[C@H](CCCN)NC(=O)[C@H](CCC(=O)O)NC(=O)[C@H](Cc3ccc(-c4ccccc4)cc3)NC(=O)[C@H](C(C)C)NC2=O)c1 [Compound 1466] ({CH2CO}-NYD[Phe(3-OMe)]V[Bip]E[Orn][dL][Dab][Cha]VTCA-NH2; thioether N-14) gave an IC50 of 0.0163 µM.
COc1cccc(C[C@@H]2NC(=O)[C@H](CC(=O)O)NC(=O)[C@H](Cc3ccc(OCC(=O)O)cc3)NC(=O)[C@H](CN)NC(=O)CSC[C@@H](C(=O)N[C@@H](C)C(N)=O)NC(=O)[C@H]([C@@H](C)O)NC(=O)[C@H](C(C)C)NC(=O)[C@H](CC3CCCCC3)NC(=O)[C@H](CCN)NC(=O)[C@@H](CC(C)C)NC(=O)[C@H](CCCN)NC(=O)[C@H](CCC(=O)O)NC(=O)[C@H](Cc3ccc(-c4ccccc4)cc3)NC(=O)[C@H](C(C)C)NC2=O)c1 [Compound 1467] was tested, and the IC50 was 0.112 µM.
CC(C)C[C@H]1NC(=O)[C@H](CCCN)NC(=O)[C@H](CCC(=O)O)NC(=O)[C@H](Cc2ccc(-c3ccccc3)cc2)NC(=O)[C@H](C(C)C)NC(=O)[C@H](Cc2c[nH]c3ccccc23)NC(=O)[C@H](CC(=O)O)NC(=O)[C@H](Cc2ccc(OCC(=O)O)cc2)NC(=O)[C@H](CN)NC(=O)CSC[C@@H](C(=O)N[C@@H](C)C(N)=O)NC(=O)[C@H]([C@@H](C)O)NC(=O)[C@H](C(C)C)NC(=O)[C@H](Cc2cccc(C(F)(F)F)c2)NC(=O)[C@H](CCN)NC1=O [Compound 1468] ({CH2CO}-[Dap]Y(Carboxymethyl)DWV[Bip]E[Orn][dL][Dab][Phe(3-CF3)]VTCA-NH2; thioether N-14) was tested, and the IC50 was 0.0735 µM.
Compound COc1cccc(C[C@@H]2NC(=O)[C@H](CCN)NC(=O)[C@@H](CC(C)C)NC(=O)[C@H](CCCN)NC(=O)[C@H](CCC(=O)O)NC(=O)[C@H](Cc3ccc(-c4ccccc4)cc3)NC(=O)[C@H](C(C)C)NC(=O)[C@H](Cc3c[nH]c4ccccc34)NC(=O)[C@H](CC(=O)O)NC(=O)[C@H](Cc3ccc(OCC(=O)O)cc3)NC(=O)[C@H](CN)NC(=O)CSC[C@@H](C(=O)N[C@@H](C)C(N)=O)NC(=O)[C@H]([C@@H](C)O)NC(=O)[C@H](C(C)C)NC2=O)c1 [Compound 1469] ({CH2CO}-[Dap]Y(Carboxymethyl)DWV[Bip]E[Orn][dL][Dab][Phe(3-OMe)]VTCA-NH2; thioether N-14) has an IC50 of 0.0296 µM.
Cc1cccc(C[C@@H]2NC(=O)[C@H](CCN)NC(=O)[C@@H](CC(C)C)NC(=O)[C@H](CCCN)NC(=O)[C@H](CCC(=O)O)NC(=O)[C@H](Cc3ccc(-c4ccccc4)cc3)NC(=O)[C@H](C(C)C)NC(=O)[C@H](Cc3c[nH]c4ccccc34)NC(=O)[C@H](CC(=O)O)NC(=O)[C@H](Cc3ccc(OCC(=O)O)cc3)NC(=O)[C@H](CN)NC(=O)CSC[C@@H](C(=O)N[C@@H](C)C(N)=O)NC(=O)[C@H]([C@@H](C)O)NC(=O)[C@H](C(C)C)NC2=O)c1 [Compound 1470] ({CH2CO}-[Dap]Y(Carboxymethyl)DWV[Bip]E[Orn][dL][Dab][Phe(3-Me)]VTCA-NH2; thioether N-14) gave an IC50 of 0.0546 µM.
Cc1ccc(C[C@@H]2NC(=O)[C@H](CCN)NC(=O)[C@@H](CC(C)C)NC(=O)[C@H](CCCN)NC(=O)[C@H](CCC(=O)O)NC(=O)[C@H](Cc3ccc(-c4ccccc4)cc3)NC(=O)[C@H](C(C)C)NC(=O)[C@H](Cc3c[nH]c4ccccc34)NC(=O)[C@H](CC(=O)O)NC(=O)[C@H](Cc3ccc(OCC(=O)O)cc3)NC(=O)[C@H](CN)NC(=O)CSC[C@@H](C(=O)N[C@@H](C)C(N)=O)NC(=O)[C@H]([C@@H](C)O)NC(=O)[C@H](C(C)C)NC2=O)cc1 [Compound 1471] ({CH2CO}-[Dap]Y(Carboxymethyl)DWV[Bip]E[Orn][dL][Dab][Phe(4-Me)]VTCA-NH2; thioether N-14) showed an IC50 of 0.305 µM.
Compound CC(C)C[C@H]1NC(=O)[C@H](CCCN)NC(=O)[C@H](CCC(=O)O)NC(=O)[C@H](Cc2ccc(-c3ccccc3)cc2)NC(=O)[C@H](C(C)C)NC(=O)[C@H](Cc2c[nH]c3ccccc23)NC(=O)[C@H](CC(=O)O)NC(=O)[C@H](Cc2ccc(OCC(=O)O)cc2)NC(=O)[C@H](CN)NC(=O)CSC[C@@H](C(=O)N[C@@H](C)C(N)=O)NC(=O)[C@H]([C@@H](C)O)NC(=O)[C@H](C(C)C)NC(=O)[C@H](Cc2ccc(Cl)cc2)NC(=O)[C@H](CCN)NC1=O [Compound 1472] ({CH2CO}-[Dap]Y(Carboxymethyl)DWV[Bip]E[Orn][dL][Dab][Phe(4-Cl)]VTCA-NH2; thioether N-14) has an IC50 of 0.128 µM.
CC(C)C[C@H]1NC(=O)[C@H](CCCN)NC(=O)[C@H](CCC(=O)O)NC(=O)[C@H](Cc2ccc(-c3ccccc3)cc2)NC(=O)[C@H](C(C)C)NC(=O)[C@H](Cc2c[nH]c3ccccc23)NC(=O)[C@H](CC(=O)O)NC(=O)[C@H](Cc2ccc(OCC(=O)O)cc2)NC(=O)[C@H](CN)NC(=O)CSC[C@@H](C(=O)N[C@@H](C)C(N)=O)NC(=O)[C@H]([C@@H](C)O)NC(=O)[C@H](C(C)C)NC(=O)[C@H](Cc2ccc(N)cc2)NC(=O)[C@H](CCN)NC1=O [Compound 1473] ({CH2CO}-[Dap]Y(Carboxymethyl)DWV[Bip]E[Orn][dL][Dab][Phe(4-NH2)]VTCA-NH2; thioether N-14) was tested, and the IC50 was 0.801 µM.
CC(C)C[C@H]1NC(=O)[C@H](CCCN)NC(=O)[C@H](CCC(=O)O)NC(=O)[C@H](Cc2ccc(-c3ccccc3)cc2)NC(=O)[C@H](C(C)C)NC(=O)[C@H](Cc2c[nH]c3ccccc23)NC(=O)[C@H](CC(=O)O)NC(=O)[C@H](Cc2ccc(OCC(=O)O)cc2)NC(=O)[C@H](CN)NC(=O)CSC[C@@H](C(=O)N[C@@H](C)C(N)=O)NC(=O)[C@H]([C@@H](C)O)NC(=O)[C@H](C(C)C)NC(=O)[C@H](Cc2cccc3ccccc23)NC(=O)[C@H](CCN)NC1=O [Compound 1474] showed an IC50 of 0.0686 µM.
For CC(C)C[C@H]1NC(=O)[C@H](CCCN)NC(=O)[C@H](CCC(=O)O)NC(=O)[C@H](Cc2ccc(-c3ccccc3)cc2)NC(=O)[C@H](C(C)C)NC(=O)[C@H](Cc2c[nH]c3ccccc23)NC(=O)[C@H](CC(=O)O)NC(=O)[C@H](Cc2ccc(OCC(=O)O)cc2)NC(=O)[C@H](CN)NC(=O)CSC[C@@H](C(=O)N[C@@H](C)C(N)=O)NC(=O)[C@H]([C@@H](C)O)NC(=O)[C@H](C(C)C)NC(=O)[C@H](Cc2cccc(O)c2)NC(=O)[C@H](CCN)NC1=O [Compound 1475] ({CH2CO}-[Dap]Y(Carboxymethyl)DWV[Bip]E[Orn][dL][Dab][mTyr]VTCA-NH2; thioether N-14), the IC50 was 0.12 µM.
CC(C)C[C@H]1NC(=O)[C@H](CCCN)NC(=O)[C@H](CCC(=O)O)NC(=O)[C@H](Cc2ccc(-c3ccccc3)cc2)NC(=O)[C@H](C(C)C)NC(=O)[C@H](Cc2c[nH]c3ccccc23)NC(=O)[C@H](CC(=O)O)NC(=O)[C@H](Cc2ccc(OCC(=O)O)cc2)NC(=O)[C@H](CN)NC(=O)CSC[C@@H](C(=O)N[C@@H](C)C(N)=O)NC(=O)[C@H]([C@@H](C)O)NC(=O)[C@H](C(C)C)NC(=O)[C@H](Cc2cc(F)cc(F)c2)NC(=O)[C@H](CCN)NC1=O [Compound 1476] ({CH2CO}-[Dap]Y(Carboxymethyl)DWV[Bip]E[Orn][dL][Dab][Phe(3,5-F2)]VTCA-NH2; thioether N-14) gave an IC50 of 0.033 µM.
For CC(C)C[C@H]1NC(=O)[C@H](CCCN)NC(=O)[C@H](CCC(=O)O)NC(=O)[C@H](Cc2ccc(-c3ccccc3)cc2)NC(=O)[C@H](C(C)C)NC(=O)[C@H](Cc2c[nH]c3ccccc23)NC(=O)[C@H](CC(=O)O)NC(=O)[C@H](Cc2ccc(OCC(=O)O)cc2)NC(=O)[C@H](CN)NC(=O)CSC[C@@H](C(=O)N[C@@H](C)C(N)=O)NC(=O)[C@H]([C@@H](C)O)NC(=O)[C@H](C(C)C)NC(=O)[C@H](Cc2cc(F)c(F)cc2F)NC(=O)[C@H](CCN)NC1=O [Compound 1477], the IC50 was 0.144 µM.
Compound CC(C)C[C@H]1NC(=O)[C@H](CCCN)NC(=O)[C@H](CCC(=O)O)NC(=O)[C@H](Cc2ccc(-c3ccccc3)cc2)NC(=O)[C@H](C(C)C)NC(=O)[C@H](Cc2c[nH]c3ccccc23)NC(=O)[C@H](CC(=O)O)NC(=O)[C@H](Cc2ccc(OCC(=O)O)cc2)NC(=O)[C@H](CN)NC(=O)CSC[C@@H](C(=O)N[C@@H](C)C(N)=O)NC(=O)[C@H]([C@@H](C)O)NC(=O)[C@H](C(C)C)NC(=O)[C@H](Cc2ccc(Cl)cc2Cl)NC(=O)[C@H](CCN)NC1=O [Compound 1478] ({CH2CO}-[Dap]Y(Carboxymethyl)DWV[Bip]E[Orn][dL][Dab][Phe(2,4-Cl2)]VTCA-NH2; thioether N-14) has an IC50 of 0.12 µM.
